Measurements from PubChem BioAssay AID248 (DTP/NCI, 2004).
“And” between values parts separate entries of the source, which are not always exact repeats. Equal entries are not always repeated. Inconclusive results and toxic doses are left out. No stated cut-off is given here; in the data, active means T/C of 150% or more; inactive means T/C below 125%.

System: L1210 leukemia ip in BDF1 mice, survival T/C
Experiment: NCI In Vivo Anticancer Drug Screen. Data for tumor model L1210 Leukemia (intraperitoneal) in B6D2F1 (BDF1) mice
Settings: endpoint: mean survival time, higher = longer survival
How it was run: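 Ratio derived from survival: compound-dosed mice over vehicle-dosed mice, all bearing a transplantable tumor.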

[1] = dose: 50.0 mg/kg/injection, schedule: Q01DX001 (ip), vehicle: saline
[2] = dose: 100.0 mg/kg/injection, schedule: Q01DX001 (ip), vehicle: saline
[3] = dose: 200.0 mg/kg/injection, schedule: Q01DX001 (ip), vehicle: saline
[4] = dose: 400.0 mg/kg/injection, schedule: Q01DX001 (ip), vehicle: saline
[5] = dose: 100.0 mg/kg/injection, schedule: Q04DX002 (ip), vehicle: saline with Tween-80
[6] = dose: 200.0 mg/kg/injection, schedule: Q04DX002 (ip), vehicle: saline with Tween-80
[7] = dose: 400.0 mg/kg/injection, schedule: Q04DX002 (ip), vehicle: saline with Tween-80
[8] = dose: 100.0 mg/kg/injection, schedule: Q01DX009 (ip), vehicle: Klucel (hydroxypropylcellulose) (HPC)
[9] = dose: 100.0 mg/kg/injection, schedule: Q04DX002 (ip), vehicle: Klucel (hydroxypropylcellulose) (HPC)
[10] = dose: 200.0 mg/kg/injection, schedule: Q01DX009 (ip), vehicle: Klucel (hydroxypropylcellulose) (HPC)
[11] = dose: 200.0 mg/kg/injection, schedule: Q04DX002 (ip), vehicle: Klucel (hydroxypropylcellulose) (HPC)
[12] = dose: 400.0 mg/kg/injection, schedule: Q01DX009 (ip), vehicle: Klucel (hydroxypropylcellulose) (HPC)
[13] = dose: 400.0 mg/kg/injection, schedule: Q04DX002 (ip), vehicle: Klucel (hydroxypropylcellulose) (HPC)
[14] = dose: 100.0 mg/kg/injection, schedule: Q04DX003 (ip), vehicle: Klucel (hydroxypropylcellulose) (HPC)
[15] = dose: 200.0 mg/kg/injection, schedule: Q04DX003 (ip), vehicle: Klucel (hydroxypropylcellulose) (HPC)
[16] = dose: 400.0 mg/kg/injection, schedule: Q04DX003 (ip), vehicle: Klucel (hydroxypropylcellulose) (HPC)
[17] = dose: 100.0 mg/kg/injection, schedule: Q04DX003 (ip), vehicle: saline
[18] = dose: 200.0 mg/kg/injection, schedule: Q04DX003 (ip), vehicle: saline
[19] = dose: 25.0 mg/kg/injection, schedule: Q04DX003 (ip), vehicle: Klucel (hydroxypropylcellulose) (HPC)
[20] = dose: 50.0 mg/kg/injection, schedule: Q04DX003 (ip), vehicle: Klucel (hydroxypropylcellulose) (HPC)

Measured: T/C

CCNC(=O)NCC
inactive: [1] 109 % of control | [2] 101 % of control | [3] 103 % of control | [4] 97 % of control

C=C(C)C1(CCC(C)C)C(=O)NC(=O)NC1=O
inactive: dose: 75.0 mg/kg/injection, schedule: Q01DX001 (ip), vehicle: saline 109 % of control | dose: 150.0 mg/kg/injection, schedule: Q01DX001 (ip), vehicle: saline 104 % of control | dose: 300.0 mg/kg/injection, schedule: Q01DX001 (ip), vehicle: saline 105 % of control

CC(=O)Nc1cc(C)cc(C)n1
inactive: dose: 87.5 mg/kg/injection, schedule: Q01DX009 (ip), vehicle: saline with Tween-80 113 % of control | dose: 175.0 mg/kg/injection, schedule: Q01DX009 (ip), vehicle: saline with Tween-80 102 % of control

Cc1ncc(C(N)=O)c(C)n1
inactive: [2] 95 % of control | [3] 101 % of control | [4] 101 % of control

COc1cc(C(=O)Nc2ccccc2)cc(OC)c1OC
inactive: [5] 102 % of control | [6] 98 % of control | [7] 95 % of control

O=NN(CC(=O)O)c1ccc2ccccc2c1
inactive: [5] 90 % of control | [6] 90 % of control | [7] 93 % of control

COc1cc(C(=O)NC2CC(C)CC(C)(C)C2)cc(OC)c1OC (stereo not given)
inactive: [8] 91 % of control | [9] 92 % of control | [10] 91 % of control | [11] 98 % of control | [12] 91 % of control | [13] 103 % of control

CCCC(CNC(=O)OCC)(CNC(=O)OCC)c1ccccc1
inactive: dose: 100.0 mg/kg/injection, schedule: Q01DX001 (ip), vehicle: carboxymethylcellulose (CMC) 94 % of control | dose: 200.0 mg/kg/injection, schedule: Q01DX001 (ip), vehicle: carboxymethylcellulose (CMC) 94 % of control | dose: 400.0 mg/kg/injection, schedule: Q01DX001 (ip), vehicle: carboxymethylcellulose (CMC) 105 % of control

CCN(CC)C(N)=S
inactive: [8] 108 % of control | [14] 106 % of control | [10] 100 % of control | [15] 103 % of control | [12] 100 % of control | [16] 112 % of control

N#C/C(=C(/C#N)c1ccccc1)c1ccccc1
inactive: dose: 100.0 mg/kg/injection, schedule: Q01DX001 (ip), vehicle: saline with Tween-80 95 % of control | dose: 200.0 mg/kg/injection, schedule: Q01DX001 (ip), vehicle: saline with Tween-80 93 % of control | dose: 400.0 mg/kg/injection, schedule: Q01DX001 (ip), vehicle: saline with Tween-80 91 % of control

O=C(c1ccccc1)C1CC1c1ccccc1 (stereo not given)
inactive: dose: 75.0 mg/kg/injection, schedule: Q01DX001 (ip), vehicle: Klucel (hydroxypropylcellulose) (HPC) 96 % of control | dose: 75.0 mg/kg/injection, schedule: Q04DX002 (ip), vehicle: saline with Tween-80 105 % of control | [17] 101 % of control | dose: 150.0 mg/kg/injection, schedule: Q01DX001 (ip), vehicle: Klucel (hydroxypropylcellulose) (HPC) 100 % of control | dose: 150.0 mg/kg/injection, schedule: Q04DX002 (ip), vehicle: saline with Tween-80 91 % of control | [18] 93 % of control | dose: 300.0 mg/kg/injection, schedule: Q01DX001 (ip), vehicle: Klucel (hydroxypropylcellulose) (HPC) 102 % of control | dose: 300.0 mg/kg/injection, schedule: Q04DX002 (ip), vehicle: saline with Tween-80 98 % of control | dose: 400.0 mg/kg/injection, schedule: Q04DX003 (ip), vehicle: saline 103 % of control

COC(=O)CC(=O)c1ccc(S(=O)(=O)F)cc1
inactive: [8] 104 % of control | [14] 98 % of control | [10] 97 % of control | [15] 96 % of control | [12] 101 % of control | [16] 100 % of control

COc1ccc(-c2cccc(-c3ccccc3)n2)cc1
inactive: dose: 12.5 mg/kg/injection, schedule: Q04DX003 (ip), vehicle: Klucel (hydroxypropylcellulose) (HPC) 91 % of control | dose: 25.0 mg/kg/injection, schedule: Q01DX009 (ip), vehicle: Klucel (hydroxypropylcellulose) (HPC) 106 % of control | [19] 98 % of control | dose: 50.0 mg/kg/injection, schedule: Q01DX009 (ip), vehicle: Klucel (hydroxypropylcellulose) (HPC) 100 % of control | [20] 98 % of control | [8] 89 % of control | [14] 96 % of control

CC(c1ccccc1)C(C)(C#N)c1ccccc1 (stereo not given)
inactive: [1] 97 % of control | [2] 100 % of control | [3] 100 % of control | [4] 103 % of control

Cc1ccc(C(C)O)cc1 (stereo not given)
inactive: [9] 98 % of control | [11] 98 % of control | [13] 98 % of control

CCCCCCCCCCCCC(O)(CC)C(=O)O (stereo not given)
inactive: [9] 98 % of control | [11] 91 % of control | [13] 91 % of control

N#[N+]c1c(O)cc(S(=O)(=O)O)c2ccccc12
inactive: dose: 100.0 mg/kg/injection, schedule: Q01DX009 (ip), vehicle: saline 92 % of control | [17] 94 % of control | [18] 101 % of control

Cc1cc(N(CCCl)CCCl)ccc1C=Nc1ccc(-c2csc(Cc3ccccc3)n2)c(Cl)c1
inactive: dose: 100.0 mg/kg/injection, schedule: Q01DX001 (sc), vehicle: carboxymethylcellulose (CMC) 100 % of control | dose: 200.0 mg/kg/injection, schedule: Q01DX001 (sc), vehicle: carboxymethylcellulose (CMC) 113 % of control | dose: 400.0 mg/kg/injection, schedule: Q01DX001 (sc), vehicle: carboxymethylcellulose (CMC) 100 % of control

Cc1cc(N(CCCl)CCCl)ccc1C=Nc1ccc2c(c1)ncn2C
inactive: [9] 98 % of control | [11] 98 % of control | [13] 98 % of control

O=C(Nc1cc(F)ccc1F)Oc1cccnc1
inactive: dose: 25.0 mg/kg/injection, schedule: Q01DX001 (ip), vehicle: Klucel (hydroxypropylcellulose) (HPC) 102 % of control | [19] 107 % of control | dose: 50.0 mg/kg/injection, schedule: Q01DX001 (ip), vehicle: Klucel (hydroxypropylcellulose) (HPC) 104 % of control | [20] 106 % of control | dose: 75.0 mg/kg/injection, schedule: Q01DX009 (ip), vehicle: Klucel (hydroxypropylcellulose) (HPC) 103 % of control and 108 % of control | dose: 100.0 mg/kg/injection, schedule: Q01DX001 (ip), vehicle: Klucel (hydroxypropylcellulose) (HPC) 96 % of control | [8] 95 % of control and 109 % of control | [9] 95 % of control and 105 % of control | [14] 97 % of control | dose: 150.0 mg/kg/injection, schedule: Q01DX009 (ip), vehicle: Klucel (hydroxypropylcellulose) (HPC) 107 % of control | [10] 100 % of control | [11] 100 % of control and 108 % of control | [13] 94 % of control and 87 % of control

CC(C)=CCC/C(C)=C\COc1cccc(C)c1
inactive: [5] 100 % of control | [6] 96 % of control | [7] 96 % of control

COc1ccc(C(=O)Nc2ccc(Br)cc2)cc1
inactive: dose: 100.0 mg/kg/injection, schedule: Q04DX003 (ip), vehicle: saline with Tween-80 97 % of control | dose: 200.0 mg/kg/injection, schedule: Q04DX003 (ip), vehicle: saline with Tween-80 95 % of control | dose: 400.0 mg/kg/injection, schedule: Q04DX003 (ip), vehicle: saline with Tween-80 105 % of control

COCCNCCN1CCN(CCCN2c3ccccc3Sc3ccc(C(F)(F)F)cc32)CC1
inactive: dose: 6.25 mg/kg/injection, schedule: Q04DX003 (ip), vehicle: saline 110 % of control | dose: 12.5 mg/kg/injection, schedule: Q01DX009 (ip), vehicle: saline 107 % of control | dose: 12.5 mg/kg/injection, schedule: Q04DX003 (ip), vehicle: saline 96 % of control and 100 % of control | dose: 25.0 mg/kg/injection, schedule: Q01DX009 (ip), vehicle: saline 105 % of control | dose: 25.0 mg/kg/injection, schedule: Q04DX003 (ip), vehicle: saline 95 % of control and 105 % of control | dose: 50.0 mg/kg/injection, schedule: Q04DX003 (ip), vehicle: saline 102 % of control and 108 % of control

CC(C)N(CCO)CC1C(c2ccccc2)C1c1ccccc1 (stereo not given)
inactive: dose: 25.0 mg/kg/injection, schedule: Q04DX002 (ip), vehicle: Klucel (hydroxypropylcellulose) (HPC) 97 % of control | dose: 50.0 mg/kg/injection, schedule: Q04DX002 (ip), vehicle: Klucel (hydroxypropylcellulose) (HPC) 100 % of control | [9] 97 % of control
